Test results as given in patent US6573275B1, “Bicyclic amines” (Syngenta Limited, priority 1995, dated 2003).

Tested on: peach aphid (Myzus persicae)
Assay: Insecticidal test against peach aphid, infested Chinese cabbage leaves sprayed
Assay type: in vivo
Conditions: peach aphid (Myzus persicae) on Chinese cabbage leaves, sprayed with 500 ppm composition unless otherwise stated, mortality assessed after 3 days
Outline: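 Aphid-infested Chinese cabbage leaves were sprayed with compound at 500 ppm unless otherwise stated, formulated in acetone/ethanol diluted with water containing 0.05% Synperonic NP8. Mortality was assessed after 3 days.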

SMILES	Score (grading of mortality)
N#CC1(c2cncc(Cl)c2)CC2CCC(C1)N2Cc1cccc2ccccc12 (stereo not shown) [Compound 236]	A (A indicates 80-100% mortality)
N#C[C@@]1(c2cncc(Cl)c2)C[C@H]2CC[C@@H](C1)N2Cc1ccccc1 [Compound 237, exo-3-(5-chloropyrid-3-yl)-endo-3-cyano-8-benzyl-8-azabicyclo[3.2.1]octane]	A (A indicates 80-100% mortality)
N#CC1(c2cncc(Cl)c2)CC2CCC(C1)N2Cc1ccccc1Br (stereo not shown) [Compound 238]	A (A indicates 80-100% mortality)
Cc1ccccc1CN1C2CCC1CC(C#N)(c1cncc(Cl)c1)C2 (stereo not shown) [Compound 239]	A (A indicates 80-100% mortality)
N#CC1(c2cncc(Cl)c2)CC2CCC(C1)N2Cc1cccc(Br)c1 (stereo not shown) [Compound 240]	A (A indicates 80-100% mortality)
COC(=O)c1cccc(CN2C3CCC2CC(C#N)(c2cncc(Cl)c2)C3)c1 (stereo not shown) [Compound 241]	A (A indicates 80-100% mortality)
Cc1cccc(CN2C3CCC2CC(C#N)(c2cncc(Cl)c2)C3)c1 (stereo not shown) [Compound 242]	A (A indicates 80-100% mortality)
N#CC1(c2cncc(Cl)c2)CC2CCC(C1)N2Cc1ccc(Br)cc1 (stereo not shown) [Compound 243]	A (A indicates 80-100% mortality)
CC(C)(C)C(=O)c1ccc(CN2C3CCC2CC(C#N)(c2cncc(Cl)c2)C3)cc1 (stereo not shown) [Compound 245]	A (A indicates 80-100% mortality)
CC(C)(C)c1ccc(CN2C3CCC2CC(C#N)(c2cncc(Cl)c2)C3)cc1 (stereo not shown) [Compound 246]	A (A indicates 80-100% mortality)
CC(C)c1ccc(CN2C3CCC2CC(C#N)(c2cncc(Cl)c2)C3)cc1 (stereo not shown) [Compound 247]	A (A indicates 80-100% mortality)
Cc1ccc(CN2C3CCC2CC(C#N)(c2cncc(Cl)c2)C3)cc1 (stereo not shown) [Compound 248]	A (A indicates 80-100% mortality)
N#CC1(c2cncc(Cl)c2)CC2CCC(C1)N2Cc1ccc(F)c(F)c1 (stereo not shown) [Compound 249]	A (A indicates 80-100% mortality)
N#CC1(c2cncc(Cl)c2)CC2CCC(C1)N2Cc1ccccc1F (stereo not shown) [Compound 250]	A (A indicates 80-100% mortality)
N#CC1(c2cncc(Cl)c2)CC2CCC(C1)N2Cc1cc(F)cc(Br)c1 (stereo not shown) [Compound 251]	A (A indicates 80-100% mortality)
N#CC1(c2cncc(Cl)c2)CC2CCC(C1)N2Cc1ccc(F)cc1F (stereo not shown) [Compound 252]	A (A indicates 80-100% mortality)
N#CC1(c2cncc(Cl)c2)CC2CCC(C1)N2Cc1cccc(F)c1 (stereo not shown) [Compound 253]	A (A indicates 80-100% mortality)
N#CC1(c2cncc(Cl)c2)CC2CCC(C1)N2Cc1ccc(F)cc1 (stereo not shown) [Compound 254]	A (A indicates 80-100% mortality)
N#CC1(c2cncc(Cl)c2)CC2CCC(C1)N2Cc1cccc(C(F)(F)F)c1 (stereo not shown) [Compound 255]	A (A indicates 80-100% mortality)
N#CC1(c2cncc(Cl)c2)CC2CCC(C1)N2Cc1ccc(C(F)(F)F)cc1 (stereo not shown) [Compound 256]	A (A indicates 80-100% mortality)

SMILES	Score (grading of mortality)
N#CC1(c2cncc(Cl)c2)CC2CCC(C1)N2Cc1cccc(Cl)c1F (stereo not shown) [Compound 257]	A (A indicates 80-100% mortality)
N#CC1(c2cncc(Cl)c2)CC2CCC(C1)N2Cc1c(F)ccc(F)c1Cl (stereo not shown) [Compound 258]	A (A indicates 80-100% mortality)
N#CC1(c2cncc(Cl)c2)CC2CCC(C1)N2Cc1ccccc1Cl (stereo not shown) [Compound 259]	A (A indicates 80-100% mortality)
N#CC1(c2cncc(Cl)c2)CC2CCC(C1)N2Cc1c(Cl)cccc1Cl (stereo not shown) [Compound 260]	A (A indicates 80-100% mortality)
N#CC1(c2cncc(Cl)c2)CC2CCC(C1)N2Cc1cccc(Cl)c1 (stereo not shown) [Compound 261]	A (A indicates 80-100% mortality)
N#CC1(c2cncc(Cl)c2)CC2CCC(C1)N2Cc1ccc(F)cc1I (stereo not shown) [Compound 262]	A (A indicates 80-100% mortality)
Cc1cccc(CN2C3CCC2CC(C#N)(c2cncc(Cl)c2)C3)c1F (stereo not shown) [Compound 263]	A (A indicates 80-100% mortality)
N#CC1(c2cncc(Cl)c2)CC2CCC(C1)N2Cc1ccccc1N1C(=O)CCC1=O (stereo not shown) [Compound 264]	A (A indicates 80-100% mortality)
N#CC1(c2cncc(Cl)c2)CC2CCC(C1)N2Cc1cc(C(F)(F)F)ccc1F (stereo not shown) [Compound 265]	A (A indicates 80-100% mortality)
N#CC1(c2cncc(Cl)c2)CC2CCC(C1)N2Cc1ccccc1-c1ccccc1 (stereo not shown) [Compound 266]	A (A indicates 80-100% mortality)
N#Cc1ccccc1CN1C2CCC1CC(C#N)(c1cncc(Cl)c1)C2 (stereo not shown) [Compound 267]	A (A indicates 80-100% mortality)
N#CC1(c2cncc(Cl)c2)CC2CCC(C1)N2Cc1cccc(Oc2ccc(F)cc2)c1 (stereo not shown) [Compound 269]	A (A indicates 80-100% mortality)
N#Cc1ccc(CN2C3CCC2CC(C#N)(c2cncc(Cl)c2)C3)cc1 (stereo not shown) [Compound 270]	A (A indicates 80-100% mortality)
N#CC1(c2cncc(Cl)c2)CC2CCC(C1)N2Cc1ccc(F)c(F)c1F (stereo not shown) [Compound 271]	A (A indicates 80-100% mortality)
N#CC1(c2cncc(Cl)c2)CC2CCC(C1)N2Cc1ccccc1[N+](=O)[O-] (stereo not shown) [Compound 272]	A (A indicates 80-100% mortality)
N#CC1(c2cncc(Cl)c2)CC2CCC(C1)N2Cc1c(F)cccc1[N+](=O)[O-] (stereo not shown) [Compound 273]	A (A indicates 80-100% mortality)
N#CC1(c2cncc(Cl)c2)CC2CCC(C1)N2Cc1cccc([N+](=O)[O-])c1 (stereo not shown) [Compound 274]	A (A indicates 80-100% mortality)
N#CC1(c2cncc(Cl)c2)CC2CCC(C1)N2Cc1ccc([N+](=O)[O-])cc1 (stereo not shown) [Compound 275]	A (A indicates 80-100% mortality)
CC(C)CN1C2CCC1CC(C#N)(c1cncc(Cl)c1)C2 (stereo not shown) [Compound 276]	A (A indicates 80-100% mortality)
CCCCCCCCCCN1C2CCC1CC(C#N)(c1cncc(Cl)c1)C2 (stereo not shown) [Compound 277]	A (A indicates 80-100% mortality)

SMILES	Score (grading of mortality)
N#CC1(c2cncc(Cl)c2)CC2CCC(C1)N2CCOc1ccccc1 (stereo not shown) [Compound 278]	A (A indicates 80-100% mortality)
CCOCCN1C2CCC1CC(C#N)(c1cncc(Cl)c1)C2 (stereo not shown) [Compound 279]	A (A indicates 80-100% mortality)
CC(C)CCN1C2CCC1CC(C#N)(c1cncc(Cl)c1)C2 (stereo not shown) [Compound 280]	A (A indicates 80-100% mortality)
COC(=O)CCCN1C2CCC1CC(C#N)(c1cncc(Cl)c1)C2 (stereo not shown) [Compound 281]	A (A indicates 80-100% mortality)
N#CC1(c2cncc(Cl)c2)CC2CCC(C1)N2CCCc1ccccc1 (stereo not shown) [Compound 282]	A (A indicates 80-100% mortality)
N#CC1(c2cncc(Cl)c2)CC2CCC(C1)N2CC1CCCCC1 (stereo not shown) [Compound 283]	A (A indicates 80-100% mortality)
N#CCCN1C2CCC1CC(C#N)(c1cncc(Cl)c1)C2 (stereo not drawn) [Compound 284, exo-3-(5-chloropyrid-3-yl)-endo-3-cyano-8-(2-cyanoethyl)-8-azabicyclo[3.2.1]octane]	A (A indicates 80-100% mortality)
N#CCCCN1C2CCC1CC(C#N)(c1cncc(Cl)c1)C2 (stereo not shown) [Compound 285]	A (A indicates 80-100% mortality)
CC(O)CN1C2CCC1CC(C#N)(c1cncc(Cl)c1)C2 (stereo not shown) [Compound 286]	A (A indicates 80-100% mortality)
C=CC(=O)OCCN1C2CCC1CC(C#N)(c1cncc(Cl)c1)C2 (stereo not shown) [Compound 287]	A (A indicates 80-100% mortality)
COCCN1C2CCC1CC(C#N)(c1cncc(Cl)c1)C2 (stereo not shown) [Compound 288]	A (A indicates 80-100% mortality)
N#CC1(c2cncc(Cl)c2)CC2CCC(C1)N2CC1CCCCO1 (stereo not shown) [Compound 289]	A (A indicates 80-100% mortality)
CC(CO)CN1C2CCC1CC(C#N)(c1cncc(Cl)c1)C2 (stereo not shown) [Compound 290]	A (A indicates 80-100% mortality)
N#CC1(c2cncc(Cl)c2)CC2CCC(C1)N2CP(=O)(O)O (stereo not drawn) [Compound 292, exo-3-(5-chloropyrid-3-yl)-endo-3-cyano-8-phosphonomethyl-8-azabicyclo[3.2.1]octane]	A (A indicates 80-100% mortality)
C[N+]1([O-])C2CCC1CC(C#N)(c1cncc(Cl)c1)C2 (stereo not shown) [Compound 293]	A (A indicates 80-100% mortality)
CC(C)(C)OC(=O)N1C2CCC1CC(C#N)(c1cncc(Cl)c1)C2 (stereo not shown) [Compound 294]	A (A indicates 80-100% mortality)
CON1C2CCC1CC(C#N)(c1cncc(Cl)c1)C2 (stereo not drawn) [Compound 296, exo-3-(5-chloropyrid-3-yl)-endo-3-cyano-8-methoxy-8-azabicyclo[3.2.1]octane]	A (A indicates 80-100% mortality)
N#CC1(c2ccnc(Cl)n2)CC2CCC(C1)N2CC(F)(F)F (stereo not shown) [Compound 297]	A (A indicates 80-100% mortality)
